Data: patent US20230143604A1, “QW DOSING OF GIP RECEPTOR AGONIST PEPTIDE COMPOUNDS AND USES THEREOF” (TAKEDA PHARMACEUTICAL COMPANY LIMITED, priority 2020, published 2023)
Starred links: 1 amine or outer side, 2 acyl side, 3 side chain; linkers in the order of their positions; H or OH if unused. Non-standard residues stand in square brackets, D forms with d. Residues, ends and D or L forms follow the SMILES beside them. Groups on a side chain read outwards from the residue. *: point of attachment. C18 diacid = O=C(O)CCCCCCCCCCCCCCCCC(=O)*; C17 diacid = O=C(O)CCCCCCCCCCCCCCCC(=O)*; γGlu = O=C(O)[C@H](CCC(=O)[*:2])N[*:1]; NMeY = CN[C@@H](Cc1ccc(O)cc1)C(=O)O; AEEA = NCCOCCOCC(=O)O; Aib = CC(C)(N)C(=O)O

Experiment: Solubility in phosphate buffer pH 7.4
Procedure: Solubility of the GIPR peptides may be determined by dissolution in a phosphate buffer followed by quantitation using liquid chromatography, for example, High Performance Liquid Chromatogry (HPLC). An illustrative method is provided. For determination of the solubility of the GIPr agonist peptides, 3 mg of peptides are weighted out in a small glass vial. 100 μL of 200 mM Phosphate buffer pH 7.4 are added and the vial is sonicated/votexed as necessary for a maximum of 1 min. […] If insoluble material is observed in the tube the addition of 100 μL of buffer and mixing is repeated until complete dissolution.
3 mg of peptides are weighted out in a small glass vial. 100 uL of 200 mM Phosphate buffer pH 7.4 are added and the vial is sonicated/votexed as necessary for a maximum of 1 min. […] If insoluble material is observed in the tube the addition of 100 uL of buffer and mixing is repeated until complete dissolution.

[1] = pH 7.4, aqueous buffer, pH 7.4 Phosphate Buffer - Solubility, 200 mM Phosphate buffer pH 7.4
[2] = pH 7.4, solubility in phosphate buffer at pH 7.4, 200 mM phosphate buffer pH 7.4

Row | Structure (SMILES) | solubility [1] [mg/mL] | solubility [2] [mg/mL]
1 | CC[C@H](C)[C@H](NC(=O)[C@H](CO)NC(=O)[C@H](Cc1ccc(O)cc1)NC(=O)[C@H](CC(=O)O)NC(=O)[C@H](CO)NC(=O)[C@@H](NC(=O)[C@H](Cc1ccccc1)NC(=O)[C@@H](NC(=O)CNC(=O)[C@H](CCC(=O)O)NC(=O)C(C)(C)NC(=O)[C@H](Cc1ccc(O)cc1)NC)[C@@H](C)O)[C@@H](C)CC)C(=O)N[C@@H](C)C(=O)N[C@@H](CC(C)C)C(=O)N[C@@H](CC(=O)O)C(=O)N[C@@H](CCCNC(=N)N)C(=O)N[C@@H](CCCCNC(=O)COCCOCCNC(=O)COCCOCCNC(=O)CC[C@H](NC(=O)CCCCCCCCCCCCCCCCC(=O)O)C(=O)O)C(=O)N[C@@H](C)C(=O)N[C@@H](CCC(N)=O)C(=O)NC(C)(C)C(=O)N[C@@H](CC(=O)O)C(=O)N[C@@H](Cc1ccccc1)C(=O)N[C@H](C(=O)N[C@@H](CC(N)=O)C(=O)N[C@@H](Cc1c[nH]c2ccccc12)C(=O)N[C@@H](CC(C)C)C(=O)N[C@@H](CC(C)C)C(=O)N[C@@H](C)C(=O)N[C@@H](CCC(N)=O)C(=O)N[C@@H](CCCNC(=N)N)C(=O)N1CCC[C@H]1C(=O)N[C@@H](CO)C(=O)N[C@@H](CO)C(=O)NCC(=O)N[C@@H](C)C(=O)N1CCC[C@H]1C(=O)N1CCC[C@H]1C(=O)N1CCC[C@H]1C(=O)N[C@@H](CO)C(N)=O)C(C)C [Compound 23] (H-[NMeY][Aib]EGTFISDYSIALDRK([AEEA-AEEA-γGlu-C18 diacid])AQ[Aib]DFVNWLLAQRPSSGAPPPS-NH2) | ≥ 30 | ≥ 15
2 | CC[C@H](C)[C@H](NC(=O)[C@H](CO)NC(=O)[C@H](Cc1ccc(O)cc1)NC(=O)[C@H](CC(=O)O)NC(=O)[C@H](CO)NC(=O)[C@@H](NC(=O)[C@H](Cc1ccccc1)NC(=O)[C@@H](NC(=O)CNC(=O)[C@H](CCC(=O)O)NC(=O)C(C)(C)NC(=O)[C@H](Cc1ccc(O)cc1)NC)[C@@H](C)O)[C@@H](C)CC)C(=O)N[C@@H](C)C(=O)N[C@@H](CCCCNC(=O)CNC(=O)CNC(=O)CNC(=O)CNC(=O)CNC(=O)CC[C@H](NC(=O)CCCCCCCCCCCCCCCCC(=O)O)C(=O)O)C(=O)N[C@@H](CC(=O)O)C(=O)N[C@@H](CCCNC(=N)N)C(=O)NC(C)(C)C(=O)N[C@@H](C)C(=O)N[C@@H](CCC(N)=O)C(=O)NC(C)(C)C(=O)N[C@@H](CC(=O)O)C(=O)N[C@@H](Cc1ccccc1)C(=O)N[C@H](C(=O)N[C@@H](CC(N)=O)C(=O)N[C@@H](Cc1c[nH]c2ccccc12)C(=O)N[C@@H](CC(C)C)C(=O)N[C@@H](CC(C)C)C(=O)N[C@@H](C)C(=O)N[C@@H](CCC(N)=O)C(=O)N[C@@H](CCCNC(=N)N)C(=O)N1CCC[C@H]1C(=O)N[C@@H](CO)C(=O)N[C@@H](CO)C(=O)NCC(=O)N[C@@H](C)C(=O)N1CCC[C@H]1C(=O)N1CCC[C@H]1C(=O)N1CCC[C@H]1C(=O)N[C@@H](CO)C(N)=O)C(C)C [Compound 24] | ≥ 30 | ≥ 15
3 | CC[C@H](C)[C@H](NC(=O)[C@H](CO)NC(=O)[C@H](Cc1ccc(O)cc1)NC(=O)[C@H](CC(=O)O)NC(=O)[C@H](CO)NC(=O)[C@@H](NC(=O)[C@H](Cc1ccccc1)NC(=O)[C@@H](NC(=O)CNC(=O)[C@H](CCC(=O)O)NC(=O)C(C)(C)NC(=O)[C@H](Cc1ccc(O)cc1)NC)[C@@H](C)O)[C@@H](C)CC)C(=O)N[C@@H](C)C(=O)N[C@@H](CC(C)C)C(=O)N[C@@H](CC(=O)O)C(=O)N[C@@H](CCCNC(=N)N)C(=O)NC(C)(C)C(=O)N[C@@H](CCCCNC(=O)COCCOCCNC(=O)COCCOCCNC(=O)CC[C@H](NC(=O)CCCCCCCCCCCCCCCC(=O)O)C(=O)O)C(=O)N[C@@H](CCC(N)=O)C(=O)NC(C)(C)C(=O)N[C@@H](CC(=O)O)C(=O)N[C@@H](Cc1ccccc1)C(=O)N[C@H](C(=O)N[C@@H](CC(N)=O)C(=O)N[C@@H](Cc1c[nH]c2ccccc12)C(=O)N[C@@H](CC(C)C)C(=O)N[C@@H](CC(C)C)C(=O)N[C@@H](C)C(=O)N[C@@H](CCC(N)=O)C(=O)N[C@@H](CCCNC(=N)N)C(=O)N1CCC[C@H]1C(=O)N[C@@H](CO)C(=O)N[C@@H](CO)C(=O)NCC(=O)N[C@@H](C)C(=O)N1CCC[C@H]1C(=O)N1CCC[C@H]1C(=O)N1CCC[C@H]1C(=O)N[C@@H](CO)C(N)=O)C(C)C [Compound 25] (H-[NMeY][Aib]EGTFISDYSIALDR[Aib]K([AEEA-AEEA-γGlu-C17 diacid])Q[Aib]DFVNWLLAQRPSSGAPPPS-NH2) | ≥ 30 | ≥ 15
4 | CC[C@H](C)[C@H](NC(=O)[C@H](Cc1ccccc1)NC(=O)[C@@H](NC(=O)CNC(=O)[C@H](CCC(=O)O)NC(=O)C(C)(C)NC(=O)[C@H](Cc1ccc(O)cc1)NC)[C@@H](C)O)C(=O)N[C@@H](CO)C(=O)N[C@@H](CC(=O)O)C(=O)N[C@@H](Cc1ccc(O)cc1)C(=O)N[C@@H](CO)C(=O)N[C@H](C(=O)NC(C)(C)C(=O)N[C@@H](CC(C)C)C(=O)N[C@@H](CC(=O)O)C(=O)N[C@@H](CCCNC(=N)N)C(=O)N[C@@H](CCCCNC(=O)COCCOCCNC(=O)COCCOCCNC(=O)CC[C@H](NC(=O)CC[C@H](NC(=O)CCCCCCCCCCCCCCCCC(=O)O)C(=O)O)C(=O)O)C(=O)N[C@@H](C)C(=O)N[C@@H](CCC(N)=O)C(=O)NC(C)(C)C(=O)N[C@@H](CC(N)=O)C(=O)N[C@@H](Cc1ccccc1)C(=O)N[C@H](C(=O)N[C@@H](CC(N)=O)C(=O)N[C@@H](Cc1c[nH]c2ccccc12)C(=O)N[C@@H](CC(C)C)C(=O)N[C@@H](CC(C)C)C(=O)N[C@@H](C)C(=O)N[C@@H](CCC(N)=O)C(=O)N[C@@H](CCCNC(=N)N)C(=O)N1CCC[C@H]1C(=O)N[C@@H](CO)C(=O)N[C@@H](CO)C(=O)NCC(=O)N[C@@H](C)C(=O)N1CCC[C@H]1C(=O)N1CCC[C@H]1C(=O)N1CCC[C@H]1C(=O)N[C@@H](CO)C(N)=O)C(C)C)[C@@H](C)CC [Compound 26] (H-[NMeY][Aib]EGTFISDYSI[Aib]LDRK([AEEA-AEEA-γGlu-γGlu-C18 diacid])AQ[Aib]NFVNWLLAQRPSSGAPPPS-NH2) | ≥ 30 | ≥ 15
5 | CC[C@H](C)[C@H](NC(=O)[C@H](Cc1ccccc1)NC(=O)[C@@H](NC(=O)CNC(=O)[C@H](CCC(=O)O)NC(=O)C(C)(C)NC(=O)[C@H](Cc1ccc(O)cc1)NC)[C@@H](C)O)C(=O)N[C@@H](CO)C(=O)N[C@@H](CC(=O)O)C(=O)N[C@@H](Cc1ccc(O)cc1)C(=O)N[C@@H](CO)C(=O)N[C@H](C(=O)NC(C)(C)C(=O)N[C@@H](CCCCNC(=O)COCCOCCNC(=O)COCCOCCNC(=O)CC[C@H](NC(=O)CC[C@H](NC(=O)CCCCCCCCCCCCCCCCC(=O)O)C(=O)O)C(=O)O)C(=O)N[C@@H](CC(=O)O)C(=O)N[C@@H](CCCNC(=N)N)C(=O)NC(C)(C)C(=O)N[C@@H](C)C(=O)N[C@@H](CCC(N)=O)C(=O)NC(C)(C)C(=O)N[C@@H](CC(N)=O)C(=O)N[C@@H](Cc1ccccc1)C(=O)N[C@H](C(=O)N[C@@H](CC(N)=O)C(=O)N[C@@H](Cc1c[nH]c2ccccc12)C(=O)N[C@@H](CC(C)C)C(=O)N[C@@H](CC(C)C)C(=O)N[C@@H](C)C(=O)N[C@@H](CCC(N)=O)C(=O)N[C@@H](CCCNC(=N)N)C(=O)N1CCC[C@H]1C(=O)N[C@@H](CO)C(=O)N[C@@H](CO)C(=O)NCC(=O)N[C@@H](C)C(=O)N1CCC[C@H]1C(=O)N1CCC[C@H]1C(=O)N1CCC[C@H]1C(=O)N[C@@H](CO)C(N)=O)C(C)C)[C@@H](C)CC [Compound 28] (H-[NMeY][Aib]EGTFISDYSI[Aib]K([AEEA-AEEA-γGlu-γGlu-C18 diacid])DR[Aib]AQ[Aib]NFVNWLLAQRPSSGAPPPS-NH2) | ≥ 30 | ≥ 15
6 | CC[C@H](C)[C@H](NC(=O)[C@H](Cc1ccccc1)NC(=O)[C@@H](NC(=O)CNC(=O)[C@H](CCC(=O)O)NC(=O)C(C)(C)NC(=O)[C@H](Cc1ccc(O)cc1)NC)[C@@H](C)O)C(=O)N[C@@H](CO)C(=O)N[C@@H](CC(=O)O)C(=O)N[C@@H](Cc1ccc(O)cc1)C(=O)N[C@@H](CO)C(=O)N[C@H](C(=O)NC(C)(C)C(=O)N[C@@H](CCCCNC(=O)COCCOCCNC(=O)COCCOCCNC(=O)CC[C@H](NC(=O)CC[C@H](NC(=O)CCCCCCCCCCCCCCCC(=O)O)C(=O)O)C(=O)O)C(=O)N[C@@H](CC(=O)O)C(=O)N[C@@H](CCCNC(=N)N)C(=O)NC(C)(C)C(=O)N[C@@H](C)C(=O)N[C@@H](CCC(N)=O)C(=O)NC(C)(C)C(=O)N[C@@H](CC(N)=O)C(=O)N[C@@H](Cc1ccccc1)C(=O)N[C@H](C(=O)N[C@@H](CC(N)=O)C(=O)N[C@@H](Cc1c[nH]c2ccccc12)C(=O)N[C@@H](CC(C)C)C(=O)N[C@@H](CC(C)C)C(=O)N[C@@H](C)C(=O)N[C@@H](CCC(N)=O)C(=O)N[C@@H](CO)C(=O)N1CCC[C@H]1C(=O)N[C@@H](CO)C(=O)N[C@@H](CO)C(=O)NCC(=O)N[C@@H](C)C(=O)N1CCC[C@H]1C(=O)N1CCC[C@H]1C(=O)N1CCC[C@H]1C(=O)N[C@@H](CO)C(N)=O)C(C)C)[C@@H](C)CC [Compound 29] (H-[NMeY][Aib]EGTFISDYSI[Aib]K([AEEA-AEEA-γGlu-γGlu-C17 diacid])DR[Aib]AQ[Aib]NFVNWLLAQSPSSGAPPPS-NH2) | ≥ 30 | ≥ 15
